Laboratory results as given in patent US6737383B1, “Herbicidal oxadiazolidines” (priority 1999, dated 2004).

Experiments:
[1] = system: bedstraw; assay: Test B pre/postemergence bedstraw; format: in vivo, Galium aparine; conditions: Preemergence
In short: (§1)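 Response is a visual 0-to-10 score relative to untreated plants, where 0 means no effect and 10 means complete control, taken twelve to sixteen days after application. Treatments went onto soil at planting and onto foliage of 1- to 4-leaf plants, using a surfactant-containing non-phytotoxic solvent.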

[2] = system: blackgrass; assay: Test B pre/postemergence blackgrass; format: in vivo, Alopecurus myosuroides; conditions: Preemergence
In short: as §1

[3] = system: surinam grass; assay: Test B pre/postemergence surinam grass; format: in vivo, Brachiaria decumbens; conditions: Preemergence
In short: as §1

[4] = system: cocklebur; assay: Test B pre/postemergence cocklebur; format: in vivo, Xanthium strumarium; conditions: Preemergence
In short: as §1

[5] = system: corn; assay: Test B pre/postemergence corn; format: in vivo, Zea mays; conditions: Preemergence
In short: as §1

[6] = system: crabgrass; assay: Test B pre/postemergence crabgrass; format: in vivo, Digitaria sanguinalis; conditions: Preemergence
In short: as §1

[7] = system: giant foxtail; assay: Test B pre/postemergence giant foxtail; format: in vivo, Setaria faberii; conditions: Preemergence, scale of 0 to 10 where 0 is no effect and 10 is complete control
In short: as §1

[8] = system: morningglory; assay: Test B pre/postemergence morningglory; format: in vivo, Ipomoea hederacea; conditions: Preemergence, scale of 0 to 10 where 0 is no effect and 10 is complete control
In short: as §1

[9] = system: pigweed; assay: Test B pre/postemergence pigweed; format: in vivo, Amaranthus retroflexus; conditions: Preemergence, scale of 0 to 10 where 0 is no effect and 10 is complete control
In short: as §1

[10] = system: rape; assay: Test B pre/postemergence rape; format: in vivo, Brassica napus; conditions: Preemergence, scale of 0 to 10 where 0 is no effect and 10 is complete control
In short: as §1

[11] = system: soybean; assay: Test B pre/postemergence soybean; format: in vivo, Glycine max; conditions: Preemergence, scale of 0 to 10 where 0 is no effect and 10 is complete control
In short: as §1

[12] = system: sugar beet; assay: Test B pre/postemergence sugar beet; format: in vivo, Beta vulgaris; conditions: Preemergence, scale of 0 to 10 where 0 is no effect and 10 is complete control
In short: as §1

[13] = system: velvetleaf; assay: Test B pre/postemergence velvetleaf; format: in vivo, Abutilon theophrasti; conditions: Preemergence, scale of 0 to 10 where 0 is no effect and 10 is complete control
In short: as §1

[14] = system: wheat; assay: Test B pre/postemergence wheat; format: in vivo, Triticum aestivum; conditions: Preemergence, scale of 0 to 10 where 0 is no effect and 10 is complete control
In short: as §1

[15] = system: wild oat; assay: Test B pre/postemergence wild oat; format: in vivo, Avena fatua; conditions: Preemergence, scale of 0 to 10 where 0 is no effect and 10 is complete control
In short: as §1

[16] = system: purple nutsedge; assay: Test B pre/postemergence purple nutsedge; format: in vivo, Cyperus rotundus; conditions: Preemergence, scale of 0 to 10 where 0 is no effect and 10 is complete control
In short: as §1

[17] = Rate 62 g/ha, scale of 0 to 10 where 0 is no effect and 10 is complete control
[18] = Rate 125 g/ha, scale of 0 to 10 where 0 is no effect and 10 is complete control
[19] = Rate 250 g/ha, scale 0 to 10 (0 no effect, 10 complete control)
[20] = Rate 500 g/ha, scale of 0 to 10 where 0 is no effect and 10 is complete control

CCn1ncc(Cn2c(=O)on(C(=O)N(c3ccccc3)C(C)C)c2=O)c1Cl [Compound 683]
0: Bedstraw plant response rating [1, 17] | Plant response rating, Bedstraw [1, 18] | Plant response rating, Bedstraw [1, 19] | Plant response rating, Bedstraw [1, 20] | B. signalgrass plant response rating [3, 17] | Plant response rating, B. signalgrass [3, 18] | Cocklebur plant response rating [4, 17] | Plant response rating, Cocklebur [4, 18] | Plant response rating, Cocklebur [4, 19] | Plant response rating, Cocklebur [4, 20] | Corn plant response rating [5, 17] | Plant response rating, Corn [5, 18] | Plant response rating, Corn [5, 19] | Morningglory plant response rating ([8]; Rate 62 g/ha) | Plant response rating, Morningglory ([8]; Rate 125 g/ha) | Redroot pigweed plant response rating ([9]; Rate 62 g/ha) | Rape plant response rating ([10]; Rate 62 g/ha) | Plant response rating, Rape ([10]; Rate 125 g/ha) | Plant response rating, Rape ([10]; Rate 500 g/ha) | Soybean plant response rating ([11]; Rate 62 g/ha) | Plant response rating, Soybean ([11]; Rate 125 g/ha) | Plant response rating, Soybean ([11]; Rate 500 g/ha) | Sugarbeets plant response rating ([12]; Rate 62 g/ha) | Plant response rating, Sugarbeets ([12]; Rate 125 g/ha) | Plant response rating, Sugarbeets ([12]; Rate 500 g/ha) | Velvetleaf plant response rating ([13]; Rate 62 g/ha) | Plant response rating, Velvetleaf ([13]; Rate 125 g/ha) | Plant response rating, Velvetleaf ([13]; Rate 500 g/ha) | Wheat plant response rating ([14]; Rate 62 g/ha) | Plant response rating, Wheat ([14]; Rate 125 g/ha) | Plant response rating, Wheat ([14]; Rate 500 g/ha) | Wild oats plant response rating ([15]; Rate 62 g/ha) | Plant response rating, Wild oats ([15]; Rate 125 g/ha) | Nutsedge plant response rating ([16]; Rate 62 g/ha) | Plant response rating, Nutsedge ([16]; Rate 125 g/ha) | Plant response rating, Nutsedge ([16]; Rate 500 g/ha)
3: Plant response rating, Blackgrass [2, 18] | Plant response rating, Corn [5, 20]
8: Plant response rating, Crabgrass [6, 18] | Giant foxtail plant response rating ([7]; Rate 62 g/ha) | Plant response rating, Wild oats ([15]; Rate 500 g/ha)
1: Blackgrass plant response rating [2, 17]
4: Plant response rating, B. signalgrass [3, 19]
7: Plant response rating, Blackgrass [2, 19]
6: Crabgrass plant response rating [6, 17] | Plant response rating, Redroot pigweed ([9]; Rate 500 g/ha)
10: Plant response rating, Crabgrass [6, 20] | Plant response rating, Giant foxtail ([7]; Rate 500 g/ha)
9: Plant response rating, Blackgrass [2, 20] | Plant response rating, B. signalgrass [3, 20] | Plant response rating, Crabgrass [6, 19] | Plant response rating, Giant foxtail ([7]; Rate 125 g/ha)
2: Plant response rating, Morningglory ([8]; Rate 500 g/ha) | Plant response rating, Redroot pigweed ([9]; Rate 125 g/ha)
